From article PMC7279038, “Antioxidant and Neuroprotective Effects Induced by Cannabidiol and Cannabigerol in Rat CTX-TNA2 Astrocytes and Isolated Cortexes” (International Journal of Molecular Sciences, 2020)

Experiments:
Details in all cases: mean ± S.D., n = 3
[1] = DPPH scavenging ability test
Description: For the 1,1-diphenyl-2-picrylhydrazyl (DPPH) radical scavenging assay, sample solution was added to 4 mL of a 0.004% methanol solution of DPPH. The sample absorbance was read at 517 nm after a 30 min incubation at room temperature in the dark. DPPH radical scavenging activity was expressed as IC50 values.

[2] = ABTS scavenging ability test
Description: For the 2,2′-azino-bis(3-ethylbenzothiazoline) 6-sulfonic acid (ABTS) radical scavenging assay, ABTS+ was produced directly by reacting 7 mM ABTS solution with 2.45 mM potassium persulfate and allowing the mixture to stand for […] in the dark at room temperature. Prior to beginning the assay, ABTS solution was diluted with methanol to an absorbance of 0.700 ± 0.02 at 734 nm. Sample solution was added to ABTS solution (2 mL) and mixed. The sample absorbance was read at 734 nm after a 30 min incubation at room temperature. The ABTS radical scavenging activity was expressed as IC50 values.

[3] = Ferric reducing antioxidant power (FRAP)
Description: For the ferric reducing antioxidant power (FRAP) activity assay, sample solution was added to premixed FRAP reagent (2 mL) containing acetate buffer (0.3 M, pH 3.6), 2,4,6-tris(2-pyridyl)-S-triazine (TPTZ) (10 mM) in 40 mM HCl and ferric chloride (20 mM) in a ratio of 10:1:1 (v/v/v). Then, the sample absorbance was read at 593 nm after a 30 min incubation at room temperature. FRAP activity was expressed as IC50 values.

[4] = Cupric reducing antioxidant capacity (CUPRAC)
Description: For the cupric ion reducing activity (CUPRAC) activity assay, sample solution was added to premixed reaction mixture containing CuCl2 (1 mL, 10 mM), neocuproine (1 mL, 7.5 mM) and NH4Ac buffer (1 mL, 1 M, pH 7.0). Similarly, a blank was prepared by adding sample solution (0.5 mL) to premixed reaction mixture […] without CuCl2. Then, the sample and blank absorbances were read at 450 nm after a 30 min incubation at room temperature. The absorbance of the blank was subtracted from that of the sample. CUPRAC activity was expressed as IC50 values.

Cc1c(C)c2c(c(C)c1O)CCC(C)(C(=O)O)O2 (stereo not shown) [Trolox]
IC50 [1]: 210 ± 10 µM
IC50 [2]: 410 ± 10 µM
IC50 [3]: 180 ± 10 µM
IC50 [4]: 500 ± 10 µM
